From patent US9393221B2, “Methods and compounds for reducing intracellular lipid storage” (THE GENERAL HOSPITAL CORPORATION, priority 2011, dated 2016)
Structures can show the parent of a compound that is named as a salt.

test system: ATGL-KO iPSCs; assay: High throughput iPSC chemical screening, Oil Red O (ORO) lipid accumulation; format: cell-based, mouse; details: glycolytic switch compounds; on Z-score: test concentration or dose not given here

Compound | Rank in normalized ORO score from screen
CC(NCCC(c1ccccc1)c1ccccc1)c1ccccc1 (centres unmarked) [Fendiline hydrochloride, reference compound] | 1
O=C1NCN(c2ccccc2)C12CCN(CCCC(c1ccc(F)cc1)c1ccc(F)cc1)CC2 [Fluspirilen, reference compound] | 40
Fc1ccc(C(OCCN2CCN(CCCc3ccccc3)CC2)c2ccc(F)cc2)cc1 [GBR 12909 dihydrochloride] | 208

same assay, conditions: normalized ORO level vs DMSO-treated cells; compound present during 7 days differentiation, 96-well; negative = decrease in lipid accumulation

Compound | Z-score
CCc1cccc2c3c([nH]c12)C(CC)(CC(=O)O)OCC3 (centres unmarked) [Etodolac] | 1.6287
Cn1c(=O)c2c(ncn2CCO)n(C)c1=O [Etofylline] | −0.8406
CCOC(=O)c1cncn1[C@H](C)c1ccccc1 [Etomidate] | 0.2274
COc1cc([C@@H]2c3cc4c(cc3[C@@H](O[C@@H]3O[C@@H]5CO[C@@H](C)O[C@H]5[C@H](O)[C@H]3O)[C@H]3COC(=O)[C@H]23)OCO4)cc(OC)c1O [Etoposide] | 39.4033
CC1CC(OC(=O)C(O)c2ccccc2)CC(C)(C)N1C (centres unmarked) [Eucatropine hydrochloride] | 0.9133
COc1c2ccoc2nc2c(OC)c(OCC(O)C(C)(C)O)ccc12 (centres unmarked) [Evoxine] | −0.3336
NC(N)=Nc1nc(CSCCC(N)=NS(N)(=O)=O)cs1 [Famotidine] | −1.1457
CC(C)c1c(CN(C)C(C)Cc2ccccc2)n(C)n(-c2ccccc2)c1=O (centres unmarked) [Famprofazone] | 0.6911
O=C(O)Cc1ccc(-c2ccccc2)cc1 [Felbinac] | −0.9529
CCOC(=O)C1=C(C)NC(C)=C(C(=O)OC)C1c1cccc(Cl)c1Cl (centres unmarked) [Felodipine] | 1.337
COC(=O)Nc1nc2ccc(Sc3ccccc3)cc2[nH]1 [Fenbendazole] | 16.3822
O=C(O)CCC(=O)c1ccc(-c2ccccc2)cc1 [Fenbufen] | −0.3877
CC(NCCC(c1ccccc1)c1ccccc1)c1ccccc1 (centres unmarked) [Fendiline hydrochloride, reference compound] | −2.53
CC(C)OC(=O)C(C)(C)Oc1ccc(C(=O)c2ccc(Cl)cc2)cc1 [Fenofibrate] | −1.6051
CC(C(=O)O)c1cccc(Oc2ccccc2)c1 (centres unmarked) [Fenoprofen calcium salt dihydrate] | −0.4668
CC(Cc1ccc(O)cc1)NCC(O)c1cc(O)cc(O)c1 (centres unmarked) [Fenoterol hydrobromide] | −0.7445
O=C1NCC2(CCN(CCc3ccccc3)CC2)O1 [Fenspiride hydrochloride] | 0.2827
COc1cc(C(=O)OC2CC3CCC(C2)N3C)ccc1O (centres unmarked) [Fillalbin] | 0.7621
CC(C)(C)NC(=O)[C@H]1CC[C@H]2[C@@H]3CC[C@H]4NC(=O)C=C[C@]4(C)[C@H]3CC[C@]12C [Finasteride] | 1.067
O=C(COc1ccc(Cl)cc1)N1CCN(Cc2ccc3c(c2)OCO3)CC1 [Fipexide hydrochloride] | −0.9747
Cc1c(-c2ccccc2)oc2c(C(=O)OCCN3CCCCC3)cccc2c1=O [Flavoxate hydrochloride] | 0.3535
O=C(NCC1CCCCN1)c1cc(OCC(F)(F)F)ccc1OCC(F)(F)F (centres unmarked) [Flecainide acetate] | −0.9948
CS(=O)(=O)c1ccc([C@@H](O)[C@@H](CF)NC(=O)C(Cl)Cl)cc1 [Florfenicol] | 31.4352
Cc1onc(-c2c(F)cccc2Cl)c1C(=O)N[C@@H]1C(=O)N2[C@@H]1SC(C)(C)[C@@H]2C(=O)O [Flucloxacillin sodium] | 0.5241
Nc1[nH]c(=O)ncc1F [Flucytosine] | −0.8908
CC(=O)OCC(=O)[C@@]1(O)CC[C@H]2[C@@H]3CCC4=CC(=O)CC[C@]4(C)[C@@]3(F)[C@@H](O)C[C@@]21C [Fludrocortisone acetate] | −0.9911
O=C(O)c1ccccc1Nc1cccc(C(F)(F)F)c1 [Flufenamic acid] | −0.8139

Compound | Z-score
CC1CCc2cc(F)cc3c(=O)c(C(=O)O)cn1c23 (centres unmarked) [Flumequine] | −0.8648
Fc1ccc(C(c2ccc(F)cc2)N2CCN(C/C=C/c3ccccc3)CC2)cc1 [Flunarizine dihydrochloride] | 0.2207
CC1(C)O[C@@H]2C[C@H]3[C@@H]4C[C@H](F)C5=CC(=O)C=C[C@]5(C)[C@H]4[C@@H](O)C[C@]3(C)[C@]2(C(=O)CO)O1 [Flunisolide] | 0.2241
Cc1c(Nc2ncccc2C(=O)O)cccc1C(F)(F)F [Flunixin meglumine] | −1.0122
CC(=O)OCC(=O)[C@@]12OC(C)(C)O[C@@H]1C[C@H]1[C@@H]3C[C@H](F)C4=CC(=O)C=C[C@]4(C)[C@@]3(F)[C@@H](O)C[C@@]12C [Fluocinonide] | 0.3846
C/C=C1/C[N@+]2(C)CC[C@]34C(=C(C=O)[C@H]1C[C@@H]32)Nc1ccccc14.[Cl-] [Fluorocurarine chloride] | −1.1648
CC(=O)[C@@]1(O)CC[C@H]2[C@@H]3C[C@H](C)C4=CC(=O)C=C[C@]4(C)[C@@]3(F)[C@@H](O)C[C@@]21C [Fluorometholone] | 0.1317
CNCCC(Oc1ccc(C(F)(F)F)cc1)c1ccccc1 (centres unmarked) [Fluoxetine hydrochloride] | −1.0533
Cl.Cl.OCCN1CCN(CC/C=C2/c3ccccc3Sc3ccc(C(F)(F)F)cc32)CC1 [Flupentixol dihydrochloride cis-(Z)] | −0.5309
OCCN1CCN(CCCN2c3ccccc3Sc3ccc(C(F)(F)F)cc32)CC1 [Fluphenazine dihydrochloride] | 0.4317
CC1(C)O[C@@H]2C[C@H]3[C@@H]4C[C@H](F)C5=CC(=O)CC[C@]5(C)[C@H]4[C@@H](O)C[C@]3(C)[C@]2(C(=O)CO)O1 [Flurandrenolide] | −0.0402
CC(C(=O)O)c1ccc(-c2ccccc2)c(F)c1 (centres unmarked) [Flurbiprofen] | −1.4
O=C1NCN(c2ccccc2)C12CCN(CCCC(c1ccc(F)cc1)c1ccc(F)cc1)CC2 [Fluspirilen, reference compound] | −1.6301
CC(C)C(=O)Nc1ccc([N+](=O)[O-])c(C(F)(F)F)c1 [Flutamide] | −0.5472
CCC(=O)O[C@]1(C(=O)SCF)[C@H](C)C[C@H]2[C@@H]3C[C@H](F)C4=CC(=O)C=C[C@]4(C)[C@@]3(F)[C@@H](O)C[C@@]21C [Fluticasone propionate] | −1.0154
CC(C)n1c(/C=C/C(O)CC(O)CC(=O)O)c(-c2ccc(F)cc2)c2ccccc21 (centres unmarked) [Fluvastatin sodium salt] | 9.993
COCCCC/C(=N\OCCN)c1ccc(C(F)(F)F)cc1 [Fluvoxamine maleate] | −1.2293
Nc1nc2ncc(CNc3ccc(C(=O)N[C@@H](CCC(=O)O)C(=O)O)cc3)nc2c(=O)[nH]1 [Folic acid] | 1.253
Nc1nc(=O)c2c([nH]1)NCC(CNc1ccc(C(=O)N[C@@H](CCC(=O)[O-])C(=O)[O-])cc1)N2C=O.[Ca+2] (some centres unmarked) [Folinic acid calcium salt] | −0.7409
O=C(O)c1ccccc1OP(=O)(O)O [Fosfosal] | −1.2351
O=C1OC(CN2CCOCC2)CN1/N=C/c1ccc([N+](=O)[O-])o1 (centres unmarked) [Furaltadone hydrochloride] | −0.4516
NS(=O)(=O)c1cc(C(=O)O)c(NCc2ccco2)cc1Cl [Furosemide] | 0.5074
CCCCc1ccc(C(=O)O)nc1 [Fusaric acid] | −0.977
CC(=O)O[C@H]1C[C@@]2(C)[C@@H](C[C@@H](O)[C@H]3[C@@]4(C)CC[C@@H](O)[C@@H](C)[C@@H]4CC[C@@]32C)/C1=C(\CCC=C(C)C)C(=O)O [Fusidic acid sodium salt] | 0.9973
Fc1ccc(C(OCCN2CCN(CCCc3ccccc3)CC2)c2ccc(F)cc2)cc1 [GBR 12909 dihydrochloride] | −1.0102
NCC1(CC(=O)O)CCCCC1 [Gabapentin] | −0.2478
